Test system: HSPC-pDC

Structure (SMILES): CC[C@@H]1[C@H](F)C(=O)N[C@@H]1COc1nccc2cc(C(N)=O)c(OC)cc12 [IRAK4 inhibitor, Pf06650833]
- cell viability: without major effects

— patent US20250017959A1 (priority 2021, published 2025)
